{"source": "patent US7803930B2", "about": "“Antisense modulation of apolipoprotein B-expression” (Isis Pharmaceuticals, Inc., priority 2002, dated 2010)", "key": {"[1]": {"assay": "High fat fed C57BL/6 mice, 6 week timecourse: serum AST and ALT levels", "type": "in vivo, mouse", "settings": "for ALT levels: 6 weeks (saline control 25 IU/L); for AST levels: 6 weeks (saline control 65 IU/L)", "procedure": "Male C57BL/6 mice (n=8) receiving a high fat diet (60% kcal fat) were evaluated over the course of 6 weeks for the effects of ISIS 147764 on liver enzyme (AST and ALT) levels. Increased levels of the liver enzymes ALT and AST indicate toxicity and liver damage. Control animals received saline treatment (50 mg/kg). […] AST and ALT levels were measured at 6 weeks."}, "[2]": {"assay": "High fat fed mice (Example 51): intact oligonucleotide in liver tissue by capillary gel electrophoresis", "type": "in vivo, mouse", "settings": "50 mg/kg i.p. twice weekly", "procedure": "In a further embodiment of the invention, the inhibition of apolipoprotein B mRNA in mice was compared to liver oligonucleotide concentration, total cholesterol, LDL-cholesterol and HDL-cholesterol. Male C57Bl/6 mice receiving a high fat diet (60% fat) were evaluated over the course of 6 weeks for the effects of treatment with twice weekly intraperitoneal injections of 50 mg/kg ISIS 147764 (SEQ ID NO: 109) or 50 mg/kg of the control oligonucleotide ISIS 141923 (SEQ ID NO: 858). Control animals received saline treatment. Animals were sacrificed after 2 days, 1, 2, 4 and 6 weeks of treatment. Each treatment group at each time point consisted of 8 mice.\nTarget expression in liver was measured by real-time PCR as described by other examples herein and is expressed as percent inhibition relative to saline treated mice. Total, LDL- and HDL-cholesterol levels were measured by routine clinical analysis using an Olympus Clinical Analyzer (Olympus America Inc., Melville, N.Y.) and are presented in mg/dL. Results from saline-treated animals are shown for comparison. Intact oligonucleotide in liver tissue was measured by capillary gel electrophoresis and is presented as micrograms of oligonucleotide per gram of tissue.\nThe oligonucleotide treatments described in this example were duplicated to investigate the extent to which effects of ISIS 147764 persist following cessation of treatment. Mice were treated as described, and sacrificed 1, 2, 4, 6 and 8 weeks following the cessation of oligonucleotide treatment."}, "[3]": {"system": "apolipoprotein B mRNA", "assay": "Long-term study in lean Cynomolgous monkeys (Example 64): apolipoprotein B mRNA in liver", "type": "in vivo, Cynomolgous monkey", "settings": "for apolipoprotein B expression % change normalized to saline: liver, one month", "procedure": "(§1) Male and female Cynomologous monkeys are treated with 2, 4 or 12 mg/kg of ISIS 301012 intravenously or 2 or 20 mg/kg subcutaneously at a frequency of every two days for the first week, and every 4 days thereafter, for 1 and 3 month treatment periods. Saline-treated animals serve as controls. Each treatment group includes 2 to 3 animals of each sex.\n(§2) At a one month interval and at the 3 month study termination, the animals are sacrificed and evaluated for target expression in liver, lipid levels in serum and indicators of toxicity. Liver samples are procured, RNA is isolated and apolipoprotein B mRNA expression is measured by real-time PCR as described in other examples herein. Serum lipids, including total cholesterol, LDL-cholesterol, HDL-cholesterol and triglycerides, are evaluated by routine clinical analysis using an Olympus Clinical Analyzer (Olympus America Inc., Melville, N.Y.). Ratios of LDL-cholesterol to HDL-cholesterol and total cholesterol to HDL-cholesterol are also calculated. Analyses of serum ALT and AST, inflammatory infiltrates in tissue and basophilic granules in tissue provide an assessment of toxicities related to the treatment. Hepatic steatosis, or accumulation of lipids in the liver, is assessed by routine histological analysis with oil red 0 stain and measurement of liver tissue triglycerides using a Triglyceride GPO Assay (Sigma-Aldrich, St. Louis, Mo.).\nThe results from the one month interval of the long term treatment are shown in Table 50 and are normalized to saline-treated animals for mRNA and to untreated baseline values for lipid levels. Total cholesterol, LDL-cholesterol, HDL-cholesterol, LDL particle concentration and triglyceride levels in serum were measured by nuclear magnetic resonance spectroscopy by Liposcience (Raleigh, N.C.). Additionally, the concentration of intact oligonucleotide in liver was measured by capillary gel electrophoresis and is presented as micrograms of oligonucleotide per gram of liver tissue. Each result represents the average of data from 4 animals (2 males and 2 females).\nIn a similar experiment, male and female Cynomolgous monkeys received an intravenous dose of ISIS 301012 at 4 mg/kg, every two days for the first week and every 4 days thereafter. Groups of animals were sacrificed after the first dose and the fourth dose, as well as 11, 15 and 23 days following the fourth and final dose. Liver RNA was isolated and apolipoprotein B mRNA levels were evaluated by real-time PCR as described herein. […] Furthermore, after 4 doses of ISIS 301012 at 4 mg/kg, target mRNA was reduced by approximately 85% and a 50% reduction in target mRNA was sustained for up to 16 days following the cessation of antisense oligonucleotide treatment."}, "[4]": {"assay": "Long-term study in lean Cynomolgous monkeys (Example 64): toxicity (steatosis, APTT, histology, kidney)", "type": "in vivo, Cynomolgous monkey", "procedure": "as §1, §2\nHepatic steatosis, or accumulation of lipids in the liver, was not observed following 4 weeks of treatment with the doses indicated."}}, "note": "In the oligonucleotide strings, read from the 5' end, every base follows the letter of its sugar. An asterisk marks phosphorothioate; unmarked linkages are phosphodiester. Other units and linkages are bracketed, terminal groups are in braces. A string of capitals states the bases alone. e = 2'-O-(2-methoxyethyl) (MOE); [5mC] = 5-methylcytosine; d = 2'-deoxy (DNA)", "data": [{"substance": "GTCCCTGAAGATGTCAATGC (2'-MOE gapmer, further chemistry not given here) [ISIS 147764]", "values": [{"measurement": "ALT levels", "setting": "[1]; 5 mg/kg", "value": 50, "unit": "IU/L"}, {"measurement": "AST levels", "setting": "[1]; 5 mg/kg", "value": 105, "unit": "IU/L"}, {"measurement": "ALT levels", "setting": "[1]; 25 mg/kg", "value": 70, "unit": "IU/L"}, {"measurement": "AST levels", "setting": "[1]; 25 mg/kg", "value": 70, "unit": "IU/L"}, {"measurement": "ALT levels", "setting": "[1]; 50 mg/kg", "value": 100, "unit": "IU/L"}, {"measurement": "AST levels", "setting": "[1]; 50 mg/kg", "value": 80, "unit": "IU/L"}]}, {"substance": "147764 (eG*eT*e[5mC]*e[5mC]*e[5mC]*dT*dG*dA*dA*dG*dA*dT*dG*dT*d[5mC]*eA*eA*eT*eG*e[5mC]) [compound 147764]", "values": [{"measurement": "Intact oligonucleotide", "setting": "[2]; high fat fed male C57Bl/6 mice, treatment period 1 week", "value": 121, "unit": "µg/g"}, {"measurement": "Intact oligonucleotide", "setting": "[2]; high fat fed male C57Bl/6 mice, treatment period 2 weeks", "value": 194, "unit": "µg/g"}, {"measurement": "Intact oligonucleotide", "setting": "[2]; high fat fed male C57Bl/6 mice, treatment period 4 weeks", "value": 340, "unit": "µg/g"}, {"measurement": "Intact oligonucleotide", "setting": "[2]; high fat fed male C57Bl/6 mice, treatment period 6 weeks", "value": 586, "unit": "µg/g"}, {"measurement": "Intact oligonucleotide", "setting": "[2]; high fat fed male C57Bl/6 mice, treatment period 2 days", "value": 85, "unit": "µg/g"}, {"measurement": "Intact oligonucleotide", "setting": "[2]; high fat fed mice, 1 week after cessation of dosing", "value": 215, "unit": "µg/g"}, {"measurement": "Intact oligonucleotide", "setting": "[2]; high fat fed mice, 2 weeks after cessation of dosing", "value": 168, "unit": "µg/g"}, {"measurement": "Intact oligonucleotide", "setting": "[2]; high fat fed mice, 4 weeks after cessation of dosing", "value": 124, "unit": "µg/g"}, {"measurement": "Intact oligonucleotide", "setting": "[2]; high fat fed mice, 6 weeks after cessation of dosing", "value": 70, "unit": "µg/g"}, {"measurement": "Intact oligonucleotide", "setting": "[2]; high fat fed mice, 8 weeks after cessation of dosing", "value": 43, "unit": "µg/g"}]}, {"substance": "ISIS 301012: SEQ ID NO: 247, antisense oligonucleotide targeted to human apolipoprotein B (antisense GCCTCAGTCTGCTTCGCACC; chemistry not given here)", "values": [{"measurement": "reduction in target mRNA in liver", "setting": "[3]; Cynomolgous monkeys, after 4 doses at 4 mg/kg i.v.", "value": "approximately 85%"}, {"measurement": "reduction in apolipoprotein B mRNA expression in liver", "setting": "[3]; Cynomolgous monkeys, single intravenous dose of 4 mg/kg", "value": 40, "unit": "%"}, {"measurement": "reduction in target mRNA in liver sustained after cessation", "setting": "[3]; Cynomolgous monkeys, up to 16 days following cessation of treatment (4 doses, 4 mg/kg)", "value": 50, "unit": "%"}, {"measurement": "apolipoprotein B expression", "setting": "[3]; lean Cynomolgous monkeys, one month interval", "value": "inhibits apolipoprotein B expression in a dose-dependent manner"}, {"measurement": "apolipoprotein B expression % change normalized to saline", "setting": "[3]; lean Cynomolgous monkeys, intravenous 2 mg/kg", "value": "−45", "unit": "%"}, {"measurement": "apolipoprotein B expression % change normalized to saline", "setting": "[3]; lean Cynomolgous monkeys, intravenous 4 mg/kg", "value": "−76", "unit": "%"}, {"measurement": "apolipoprotein B expression % change normalized to saline", "setting": "[3]; lean Cynomolgous monkeys, intravenous 12 mg/kg", "value": "−96", "unit": "%"}, {"measurement": "apolipoprotein B expression % change normalized to saline", "setting": "[3]; lean Cynomolgous monkeys, subcutaneous 20 mg/kg", "value": "−94", "unit": "%"}, {"measurement": "functional changes in kidney", "setting": "[4]", "value": "No functional changes"}, {"measurement": "Hepatic steatosis", "setting": "[4]; 4 weeks of treatment", "value": "not observed"}, {"measurement": "dose-related histological findings", "setting": "[4]; 12 and 20 mg/kg", "value": "basophilic granules in the liver and kidney"}, {"measurement": "transient increase in activated partial thromboplastin time (APTT)", "setting": "[4]; 12 and 20 mg/kg, during the first 4 hours", "value": "1.2-1.3 fold"}]}]}
